Numbering of substitutions follows the chain as printed. Like-named read-outs stand apart in the source and are kept apart here. Blank lines part the entries; values can stand above or below the molecule they belong to.
How the values were obtained:
[1] = molecular target: T1, Androgen Receptor (AR) (Homo sapiens, UniProt P10275, T878A); assay: Measurement of AR protein degradation in LNCaP cells by Western blotting; type: cell-based; details: read-out: AR degradation in LNCaP cells (%)
T1 construct: endogenous in cells; host or cells: LNCaP
T1 sequence (P10275 1-920 T878A): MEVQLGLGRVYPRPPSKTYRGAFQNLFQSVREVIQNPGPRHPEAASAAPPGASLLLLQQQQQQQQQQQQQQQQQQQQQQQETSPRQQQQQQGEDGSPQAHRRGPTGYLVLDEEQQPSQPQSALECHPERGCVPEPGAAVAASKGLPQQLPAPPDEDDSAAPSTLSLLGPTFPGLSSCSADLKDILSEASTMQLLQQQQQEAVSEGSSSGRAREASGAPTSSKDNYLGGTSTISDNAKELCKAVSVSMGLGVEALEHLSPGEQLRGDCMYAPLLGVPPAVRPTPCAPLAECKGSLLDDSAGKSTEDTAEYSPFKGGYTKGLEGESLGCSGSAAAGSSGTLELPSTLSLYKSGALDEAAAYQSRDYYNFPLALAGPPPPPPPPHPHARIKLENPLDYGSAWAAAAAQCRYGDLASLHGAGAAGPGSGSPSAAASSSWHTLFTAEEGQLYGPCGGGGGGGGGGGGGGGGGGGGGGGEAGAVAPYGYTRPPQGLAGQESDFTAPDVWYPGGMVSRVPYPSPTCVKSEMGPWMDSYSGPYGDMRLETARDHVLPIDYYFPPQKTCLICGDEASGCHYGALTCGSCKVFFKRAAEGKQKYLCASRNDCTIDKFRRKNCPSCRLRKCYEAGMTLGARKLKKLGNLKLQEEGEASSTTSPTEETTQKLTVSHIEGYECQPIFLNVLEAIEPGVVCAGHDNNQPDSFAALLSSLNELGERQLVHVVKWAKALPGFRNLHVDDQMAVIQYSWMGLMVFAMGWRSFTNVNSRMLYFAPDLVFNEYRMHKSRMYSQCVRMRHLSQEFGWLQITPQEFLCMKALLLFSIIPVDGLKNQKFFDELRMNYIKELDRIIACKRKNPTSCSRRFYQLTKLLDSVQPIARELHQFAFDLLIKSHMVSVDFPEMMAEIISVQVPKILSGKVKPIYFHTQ
Procedure: (§1) The amount of AR protein present in LNCaP or VCaP cells was measured after treating them with the synthesized compound. The amount of AR protein was measured using Western blotting. The protocol for the experiments using LNCaP or VCaP cells was as follows.
(§2) [Culture] LNCaP cells were resuspended in RPMI1640 medium + HEPES (Hyclone, SH30255.01), 10% FBS (Hyclone, SV30207.02), and 1% Penicillin-streptomycin (Welgene, LS 202-02). 3 x 10^5 cells/mL were seeded in 12-well plates (1 mL per well) and cultured for 3 days. VCaP cells were resuspended in IMDM MEDIUM (Hyclone, SH30228.01), 20% FBS (Hyclone, SV30207.02), and 1% Penicillin-streptomycin (Welgene, LS 202-02), seeded at 9 x 10^5/mL in 1 mL per 12-well plate, and cultured for 3 days.
(§3) [Compound Treatment] 10 µL of 100x stock (e.g., 0.1, 1, 10 µM) compound solution at the final compound treatment concentration (e.g., 0.001, 0.01, 0.1 µM) was added to each well in 1 mL media, and cells were harvested after 20 hours. For DC50 measurement, 100x stock (0.01, 0.1, 1, 10, 100, 1000 µM) compound solutions at the final compound treatment concentration (0.0001, 0.001, 0.01, 0.1, 1, 10 µM) were used.
(§4) [Cell lysis] The cell pellet was suspended using 1% SDS lysis buffer (50 mM Tris, 1 mM EDTA, 1% SDS, pH 8.0, 0.5 mM PMSF, 1x Protease/Phosphatase inhibitor Cocktail (Cell Signaling Technology, 5872S)), and sonication (70% AMP, 10 cycles (30 sec ON/59 sec OFF)) was performed. After centrifugation at 4°C and 20,000 g for 20 minutes, the cell lysate was obtained and transferred to a new tube.
(§5) [Protein Quantification] A BCA protein assay (SMART™ BCA Protein Assay Kit, iNtRON Biotechnology, 21071) was performed using a 96-well microplate. 5 µL of cell lysate and 5 µL of 1% SDS lysis buffer were added to each well of the 96-well plate, followed by an additional 200 µL of BCA reagent (Reagent A: Reagent B = 50:1). The wells were incubated at 37°C for 30 minutes and cooled to room temperature for 10 minutes. After shaking for 10 seconds, the absorbance was measured at a wavelength of 562 nm. The unknown protein concentration was determined using a BSA standard curve (0, 0.125, 0.25, 0.5, 1, 2 mg/mL). Western blotting samples were prepared by mixing cell lysate, 1% SDS lysis buffer, 4x NuPAGE™ LDS Sample buffer (Invitrogen, NP0008), and 10X NuPAGE™ Sample Reducing Agent (Invitrogen, NP0009) and boiling at 70°C for 10 minutes.
(§6) [Electrophoresis] 10 µg of protein sample was loaded into each well of a NuPAGE™ 4 to 12%, Bis-Tris, 1.0 mm Mini Protein Gel, 15-well, 17-well, or 26-well (Invitrogen, NP0323BOX, NP0329BOX, or WG1403BOX) and electrophoresed for 40 minutes using NuPAGE™MES SDS Running Buffer (Invitrogen, NP0002) at 200 V (constant V).
(§7) [Transfer] Transfer was performed for 15 or 18 minutes using the electrophoresed gel and the Trans-Blot® Turbo™ Transfer Starter System (Bio-RAD, #17001918, Mini Nitrocellulose) at 1.3 A (constant A) and 25 V (limit V). To confirm protein transfer, 15 mL of Ponceau S solution (Sigma, P7170-1L) was used to stain for 1 minute, and then washed to check the degree of transfer.
(§8) [Blocking] The membrane for AR and GAPDH detection was blocked with 5% skim milk/0.2% TBST (Skim milk: BD, 232100/ 20X TBS: Biosesang, TR2008-100-00/ 10% Tween 20 Solution: Bio-RAD, #161-0781) for 45 minutes.
(§9) [Antibodies and Detection] Primary AR antibody (Androgen Receptor: CST, 5153S) was mixed with 5% skim milk/0.2% TBST at a ratio of 1:1,000 and reacted at room temperature for 3 hours or at 4°C overnight. Primary GAPDH antibody (CST, 2118S) was mixed with 5% skim milk/0.2% TBST at a ratio of 1:2,000 and reacted at room temperature for 3 hours or at 4°C overnight. Afterwards, TBST (0.2% Tween 20) was used for washing three times every 5 minutes. Secondary antibody to AR antibody, Anti-rabbit IgG, HRP-linked Antibody (CST, 7074S), was mixed with 5% skim milk/0.2% TBST at a ratio of 1:5,000 and reacted at room temperature for 45 minutes. […]

[2] = molecular target: T2, Androgen Receptor (AR) (Homo sapiens, UniProt P10275); assay: Measurement of AR protein degradation in VCaP cells by Western blotting; type: cell-based; design: endogenous in cells; host or cells: VCaP; details: VCaP, 20 h, read-out: AR degradation in VCaP cells (%)
T2 sequence (P10275 1-920): T1 sequence (P10275 1-920 T878A) with A878T
Procedure: as §1, §2, §3, §4, §5, §6, §7, §8, §9

Structure (SMILES): N#Cc1ccc(N2CCC(C(=O)Nc3ccc(OC4CCN(C5CCN(c6ccc(NC7CCC(=O)NC7=O)cc6F)CC5)CC4)cn3)CC2)cc1C(F)(F)F (stereo not drawn) [Example 4, 1-(4-cyano-3-(trifluoromethyl)phenyl)-N-(5-((1'-(4-((2,6-dioxopiperidin-3-yl)amino)-2-fluorophenyl)-[1,4'-bipiperidin]-4-yl)oxy)pyridin-2-yl)piperidine-4-carboxamide]
- Dmax at 0.01 µM ([1]; LNCaP, 20 h): 76%
- Dmax at 0.1 µM ([1]; LNCaP, 20 h): 93%

- Dmax at 0.01 µM ([1]; 10 nM compound, 20 hours, LNCaP cells): 63%
- Dmax at 0.1 µM ([1]; 100 nM compound, 20 hours, LNCaP cells): 97%
Structure (SMILES): N#Cc1ncc(N2CCC(C(=O)Nc3ccc(OC4CCN(CC5CCN(c6ccc(NC7CCC(=O)NC7=O)cc6F)CC5)CC4)cn3)CC2)cc1C(F)(F)F (stereo not drawn) [Example 5, 1-(6-cyano-5-(trifluoromethyl)pyridin-3-yl)-N-(5-((1-((1-(4-((2,6-dioxopiperidin-3-yl)amino)-2-fluorophenyl)piperidin-4-yl)methyl)piperidin-4-yl)oxy)pyridin-2-yl)piperidine-4-carboxamide]

Structure (SMILES): N#Cc1ccc(N2CCN(C(=O)Nc3ccc(OC4CCN(CC5CCN(c6ccc(NC7CCC(=O)NC7=O)cc6F)CC5)CC4)cn3)CC2)cc1C(F)(F)F (stereo not drawn) [Example 6, 4-(4-cyano-3-(trifluoromethyl)phenyl)-N-(5-((1-((1-(4-((2,6-dioxopiperidin-3-yl)amino)-2-fluorophenyl)piperidin-4-yl)methyl)piperidin-4-yl)oxy)pyridin-2-yl)piperazine-1-carboxamide]
- Dmax at 0.01 µM ([1]; LNCaP, 20 h): 84%
- Dmax at 0.1 µM ([1]; LNCaP, 20 h): 99%

Structure (SMILES): N#Cc1ccc(N2CCC(C(=O)Nc3ccc(OC4CCN(CC5CCN(c6ccc(NC7CCC(=O)NC7=O)cc6F)CC5)CC4)cn3)CC2)c(F)c1C(F)(F)F (stereo not drawn) [Example 11, 1-(4-cyano-2-fluoro-3-(trifluoromethyl)phenyl)-N-(5-((1-((1-(4-((2,6-dioxopiperidin-3-yl)amino)-2-fluorophenyl)piperidin-4-yl)methyl)piperidin-4-yl)oxy)pyridin-2-yl)piperidine-4-carboxamide]
- Dmax at 0.01 µM [2]: 89%
- Dmax at 0.1 µM [2]: 99%

Structure (SMILES): N#Cc1ccc(N2CCC(C(=O)Nc3ccc(OC4CCN(CC5CCN(c6ccc(NC7CCC(=O)NC7=O)cc6F)CC5)CC4)nn3)CC2)c(F)c1C(F)(F)F (stereo not drawn) [Example 14, 1-(4-cyano-2-fluoro-3-(trifluoromethyl)phenyl)-N-(6-((1-((1-(4-((2,6-dioxopiperidin-3-yl)amino)-2-fluorophenyl)piperidin-4-yl)methyl)piperidin-4-yl)oxy)pyridazin-3-yl)piperidine-4-carboxamide]
- Dmax at 0.01 µM [2]: 87%
- Dmax at 0.1 µM [2]: 95%

Structure (SMILES): N#Cc1ccc(N2CCC(C(=O)Nc3ccc(OC4CCN(CC5CCN(c6ccc(NC7CCC(=O)NC7=O)cc6C(F)(F)F)CC5)CC4)cn3)CC2)cc1C(F)(F)F (stereo not drawn) [Example 18, 1-(4-cyano-3-(trifluoromethyl)phenyl)-N-(5-((1-((1-(4-((2,6-dioxopiperidin-3-yl)amino)-2-(trifluoromethyl)phenyl)piperidin-4-yl)methyl)piperidin-4-yl)oxy)pyridin-2-yl)piperidine-4-carboxamide]
- Dmax at 0.01 µM ([1]; LNCaP, 20 h): 51%
- Dmax at 0.1 µM ([1]; LNCaP, 20 h): 98%
